Measured values reported in US20240229098A1, “BIOLUMINOGENIC ASSAY FOR DRUG-RESISTANCE BACTERIA DETECTION” (priority 2021, published 2024).
Entries after “also recorded” stand apart in the source; their conditions may differ.

Legend:
[1] = Stability of probe incubated with E. coli or PBS; conditions: incubated with Escherichia coli or PBS
[2] = molecular target: T1, firefly luciferase (Photinus pyralis, UniProt P08659); experiment: Background bioluminescence and oxidation of pro-luciferin probes on repeated addition of firefly luciferase; assay type: biochemical
T1 construct: purchased Promega E1701
Procedure: The initial bioluminescent background signal may come from residual D-luciferin present in the sample. High-performance liquid chromatography (HPLC) analysis could not detect any D-luciferin at a concentration below 0.1 μM. However, addition of firefly luciferase can efficiently detect and consume the residual free D-luciferin.
To further confirm the quenching effect of dabcyl in D-Bluco, another control, Am-Bluco, was prepared that is structurally similar to D-Bluco but with dabcyl replaced by a structure lacking the broad absorption between 400 and 530 nm (FIG. 1).

[3] = tested on: E. coli expressing OXA-48; experiment: Clinical isolate spiked in synthetic urine, filtered and centrifuged, E. coli expressing OXA-48; assay type: cell-based, Escherichia coli; conditions: E. coli expressing OXA-48, 10 μM D-Bluco, an hour at 37° C., PBS pH 7.4
Procedure: FIGS. 11A-11C illustrate detection of clinical isolates spiked in urine with D-Bluco a) Workflow for clinical sample detection b) Bioluminescent response for different concentrations of S. marcescens (SME) or c) E. coli/OXA-48 spiked into synthetic urine samples following the incubation with D-Bluco (10 μM) at 37° C. for an hour. Bioluminescent signal was measured and compared to that of E. coli (10^6 c.f.u/mL).
Urinary tract infection (UTI) is a severe public health problem because of the high recurrence rates and increasing antimicrobial resistance. It is among the major cause of patient morbidity and health care expenditures for both men and women of all age groups, accounting for 1 million cases of nosocomial in USA annually and an estimate cost of 1.6 billion. As a proof-of-concept, we spiked different concentrations of clinic isolates into synthetic urine samples. E. coli expressing OXA-48 and S. marcescens (SME) were chosen as examples. S. marcescens, being an opportunistic pathogen, accounts for an average of 6.5% of all Gram negative infection in intensive Care Units. The spiked urine samples were filtered and centrifuged to collect the bacteria (FIG. 11A). The collected bacteria were then diluted in PBS (pH=7.4) and incubated with 10 μM D-Bluco for an hour at 37° C.

[4] = tested on: E. cloacae/AmpC; experiment: RAPID BLI test, clinic isolate spiked into synthetic urine, E. cloacae/AmpC; conditions: E. cloacae/AmpC in synthetic urine, D-Bluco 10 μM
Procedure: (§1) The modified rapid BLI protocol is applied. The signal of D-Bluco in PBS was subtracted before plotting. The working concentration of D-Bluco was 10 μM. All the studies were duplicated at room temperature in PBS (pH=7.4). Statistical significance was calculated using the unpaired two-tailed Student's t test (** p<0.0021, *** p<0.0002, **** p<0.0001, for comparison with 10^5 cfu/mL E. coli) (** p<0.0021, **** p<0.0001, ns: not significant). RLU indicates relative light units. Dotted line represents 3SD of the negative control.
(§2) Bacteria was mixed with 0.5% CHAPS lysis buffer for 15 min, and then incubated with D-Bluco at room temperature for another 15 min. The resulted mixture was combined with assay buffer which contains MgCl2, CoA, ATP, and luciferase for immediate bioluminescent reading.
(§3) Clinic isolates representing different classes (class A: Enterobacter cloacae/IMI, E. coli/TEM, K. pneumoniae/KPC; class B: E. coli/NDM, and class C: E. cloacae/AmpC) were spiked into synthetic urine samples.

[5] = molecular target: T2, TEM-1 (Escherichia coli, UniProt P62593); assay type: biochemical; parameters: made in house; conditions: 10 μM probe
Procedure: RLU indicates relative light units.
FIGS. 9A and 9B illustrates bioluminescent studies of D-Bluco and O-Bluco treating with various β-lactamases. 10 μM of Bluco, D-Bluco and O-Bluco incubated with 20 nM TEM-1 for 15 min in PBS at r.t. The bioluminescent signals for each compound was evaluated with or without the addition of TEM-1 by a luminator. […] The relative bioluminescent was calculated by removing background signal in PBS.
The bioluminescence emission from the released D-luciferin was measured. […] Also evaluated was whether there was interference between luciferase and β-lactamases in such dual enzyme reaction system.
The signal to background ratio for D-Bluco, O-Bluco, and Bluco was measured following the addition of the firefly luciferase (fLuc).
The caged luciferin probes were incubated with different concentrations of TEM-1 β-lactamase or IMP-1 carbapenemase (0.001-0.1 fmol) in PBS (pH=7.4) for 2 hr at 25° C. Then a mixture of luciferase (200 nM), ATP (2 mM), and MgCl2 (4 mM) was added, and bioluminescent signals were detected with a SpectraMax microplate reader or a luminator.

[6] = tested on: K. pneumoniae/KPC lysate; experiment: Bioluminescence with bacterial lysate compared to intact bacteria, K. pneumoniae/KPC; conditions: CHAPS lysis
Procedure: To evaluate whether releasing β-lactamases from periplasm could improve detection sensitivity, the bacteria were lysed.
Two clinically significant isolates K. pneumoniae expressing KPC carbapenemase (K. pneumoniae/KPC) and E. coli expressing New Delhi metallo β-lactamase (E. coli/NDM) were evaluated.
as §2

[7] = tested on: K. pneumoniae/KPC; experiment: RAPID BLI test, clinic isolate spiked into synthetic urine, K. pneumoniae/KPC; conditions: K. pneumoniae/KPC in synthetic urine, D-Bluco 10 μM
Procedure: as §1, §2, §3

[8] = tested on: E. coli/TEM lysate; experiment: Bioluminescence with bacterial lysate compared to intact bacteria, E. coli/TEM; assay type: cell-based, Escherichia coli; conditions: CHAPS lysis
[9] = molecular target: T2, TEM-1; experiment: Limit of detection of recombinant β-lactamase by bioluminescence (TEM-1); assay type: biochemical; parameters: made in house; conditions: 2 hours, room temperature; 3 SD of negative control
[10] = molecular target: T3, OXA-48 (Klebsiella pneumoniae, UniProt Q6XEC0); experiment: Limit of detection of recombinant β-lactamase by bioluminescence (OXA-48); assay type: biochemical
T3 construct: made in house
T3 sequence (Q6XEC0 23-265 limits assumed): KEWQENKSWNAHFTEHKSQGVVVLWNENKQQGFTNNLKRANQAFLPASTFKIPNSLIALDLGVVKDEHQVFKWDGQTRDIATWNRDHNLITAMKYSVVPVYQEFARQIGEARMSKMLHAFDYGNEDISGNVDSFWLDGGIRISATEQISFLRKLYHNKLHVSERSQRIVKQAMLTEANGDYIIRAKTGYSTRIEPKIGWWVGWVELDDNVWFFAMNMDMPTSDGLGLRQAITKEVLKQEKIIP

T2 sequence (P62593 24-286 limits assumed): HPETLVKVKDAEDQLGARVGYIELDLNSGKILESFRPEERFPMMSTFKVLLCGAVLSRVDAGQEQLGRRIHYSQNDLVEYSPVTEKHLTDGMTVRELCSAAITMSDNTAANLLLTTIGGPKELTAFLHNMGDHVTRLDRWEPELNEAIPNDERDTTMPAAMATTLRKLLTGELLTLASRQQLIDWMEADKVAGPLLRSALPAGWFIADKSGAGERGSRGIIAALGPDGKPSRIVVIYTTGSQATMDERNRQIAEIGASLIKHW
T1 sequence (P08659 whole entry): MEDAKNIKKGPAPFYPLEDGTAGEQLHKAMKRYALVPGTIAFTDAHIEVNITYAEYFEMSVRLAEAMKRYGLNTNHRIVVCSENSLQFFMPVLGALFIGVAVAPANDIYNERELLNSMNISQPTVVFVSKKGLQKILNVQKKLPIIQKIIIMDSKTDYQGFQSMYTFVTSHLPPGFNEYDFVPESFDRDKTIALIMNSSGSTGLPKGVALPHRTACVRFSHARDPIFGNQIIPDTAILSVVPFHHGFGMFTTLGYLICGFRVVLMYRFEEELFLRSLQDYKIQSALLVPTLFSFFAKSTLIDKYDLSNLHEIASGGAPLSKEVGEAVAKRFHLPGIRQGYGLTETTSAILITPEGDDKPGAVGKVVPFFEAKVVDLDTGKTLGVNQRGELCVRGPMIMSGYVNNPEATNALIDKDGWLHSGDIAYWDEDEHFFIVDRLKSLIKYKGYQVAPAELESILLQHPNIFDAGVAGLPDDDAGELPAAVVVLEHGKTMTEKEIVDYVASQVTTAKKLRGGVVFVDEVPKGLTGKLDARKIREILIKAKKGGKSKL

In the case of `CN(C)c1ccc(/N=N/c2ccc(C(=O)NCCCCCC(=O)NC3C(=O)N4C(C(=O)O)=C(COc5ccc6nc(C7=N[C@@H](C(=O)O)CS7)sc6c5)C[S+]([O-])C34)cc2)cc1` (stereo partly drawn) [D-Bluco, 3-(((2-((S)-4-carboxy-4,5-dihydrothiazol-2-yl)benzo[d]thiazol-6-yl)oxy)methyl)-7-(6-(4-((E)-(4-(dimethylamino)phenyl)diazenyl)benzamido)hexanamido)-8-oxo-5-thia-1-azabicyclo[4.2.0]oct-2-ene-2-carboxylic acid 5-oxide], the “stability when incubated with E. coli or PBS” value [1] is reported as “highly stable”, the “oxidation of probe incubated with firefly luciferase (mass spectrometry)” value ([2]; incubated with firefly luciferase) is reported as “oxidized” and the “bioluminescence emission on additional batches of firefly luciferase” value ([2]; repeated firefly luciferase addition, no β-lactamase) is reported as “no further bioluminescence emission was detected”. For the same molecule, the “concentration from which significant bioluminescence enhancement is seen” value [3] was 10^5 c.f.u/mL, the “concentration detected directly without culture” value [4] was 10^2 cfu/mL and the “fold increase in bioluminescence emission upon TEM-1 treatment (turn-on ratio, signal with TEM-1 over signal without TEM-1)” value ([5]; TEM-1 20 nM, 15 min, PBS pH 7.4, r.t.) was 1420 fold. The “initial bioluminescent background signal without TEM-1” value ([5]; without TEM-1) was “significantly lower than that of Bluco; also recorded: lowest background signal”, the “signal enhancement with lysate compared to intact bacteria” value [6] was 141 fold and the “concentration detected directly without culture” value [7] was 10^3 cfu/mL. For the same molecule, the “signal enhancement with lysate compared to intact bacteria” value [8] was 52 fold, the “limit of detection (LOD) of TEM-1 (all other β-lactamases)” value [9] was 0.001 femtomole and the “efficiency of OXA-48 in hydrolyzing the probe” value [10] was “low efficiency”. The “limit of detection (LOD) of OXA-48” value ([10]; 2 hours, room temperature, 3 SD of negative control (D-Bluco in PBS)) was 0.1 femtomole.
